Active and inactive are the calls of the source. No cut-off for these calls is given here.

Assay [1] concerns HCT-116. As to the kind of experiment: Cytotoxicity against p53 -/- human HCT116 cells assessed as growth inhibition at 200 uM incubated for 24 hrs by WST-1 assay. It counts as functional, cell-based. A general note: Tetrazolium assays rely on reduction of a dye to a coloured formazan, in cell work by metabolically active cells.
In assay [2] the test system is HCT-116. As to the kind of experiment: Cytotoxicity against p53 +/+ human HCT116 cells assessed as growth inhibition at 200 uM incubated for 24 hrs by WST-1 assay. It counts as functional, cell-based.
Assay [3] concerns HCT-116. As to the kind of experiment: Cytotoxicity against p53 +/+ human HCT116 cells assessed as growth inhibition incubated for 24 hrs by WST-1 assay. The note with it: HCT-116, 24 h, read-out: LD50 (the source's name). It counts as functional.

As for `CC(C)(C)OC(=O)N[C@@H](Cc1ccc(O)cc1)C(=O)N[C@@H](CC(=O)O)C(=O)Nc1cccc2ccccc12`, the “growth inhibition (GI)” value in the assay with HCT-116 [1] and with HCT-116 [2] was “inactive” in each case.

Regarding `CC(C)(C)OC(=O)N[C@@H](Cc1ccc(O)cc1)C(=O)N[C@@H](CCC(=O)O)C(=O)Nc1cccc2ccccc12`, the “growth inhibition (GI)” value in the assay with HCT-116 [1] and in the assay on HCT-116 [2] was “inactive” throughout.

For `CC(C)(C)OC(=O)NCCCCC(=O)Nc1cccc2ccccc12`, the “growth inhibition (GI)” value in the assay on HCT-116 [1] and with HCT-116 [2] was “inactive” throughout.

With `CC(C)(C)OC(=O)NCCC(=O)Nc1cccc2ccccc12`, the “growth inhibition (GI)” value in the assay on HCT-116 [1] and with HCT-116 [2] was “inactive” in each case.

Turning to `CC(C)[C@H](NC(=O)[C@H](Cc1ccc(O)cc1)NC(=O)OC(C)(C)C)C(=O)Nc1cccc2ccccc12`, the “growth inhibition (GI)” value in the assay with HCT-116 [1] and in the assay with HCT-116 [2] was “Active” throughout.

`CC(C)(C)OC(=O)N[C@@H](Cc1ccc(O)cc1)C(=O)N[C@@H](Cc1ccccc1)C(=O)Nc1cccc2ccccc12`: the “growth inhibition (GI)” value in the assay with HCT-116 [1] and in the assay on HCT-116 [2] was “Active” throughout. Besides, the CC50 in the assay on HCT-116 [3] came out at 30.7 µM.

As for `CC(C)(C)OC(=O)NCCCCCCC(=O)Nc1cccc2ccccc12`, the “growth inhibition (GI)” value with HCT-116 [1] and in the assay with HCT-116 [2] was “inactive” throughout.

With `CC(C)C[C@H](NC(=O)[C@H](Cc1ccc(O)cc1)NC(=O)OC(C)(C)C)C(=O)Nc1cccc2ccccc12`, the “growth inhibition (GI)” value in the assay on HCT-116 [1] and in the assay on HCT-116 [2] was “Active” in each case.
